Results as given in patent US11179349B2, “Use of tumor gene methylation regulator and anti-tumor drugs” (priority 2016, dated 2021).
“And” between values parts separate entries of the source, which are not always exact repeats. Equal entries are not always repeated. Each block holds one molecule with its values, some of them ahead of it.

Tests used:
[1] = system: MCF-7 (human breast cancer); experiment: CellTiter-Glo luminescent cell viability assay, human breast cancer cells; assay type: cell-based; conditions: MCF7, MCF-7, 48 hours, drug used alone
Procedure: The above tumor cell line derived from ATCC was cultured in an incubator with 5% CO2 at 37° C.
(4). The culture plate was cultured overnight in an incubator with 5% CO2 and 100% relative humidity at 37° C.

Huh-7 (human hepatoma) = experiment: CellTiter-Glo luminescent cell viability assay, human hepatoma cells; conditions: Huh-7, 48 h
Procedure: The above tumor cell line derived from ATCC was cultured in an incubator with 5% CO2 at 37° C. The cell line was subcultured twice per week by trypsinization. Cells in the logarithmic growth phase were used for plating.
The concentration of the cells was adjusted to 2×10^4 cells/ml (about 2.0×10^3 cells/well).
(3) 100 μl of a cell suspension was added to each well in the culture plate, and a cell-free culture solution was added to the blank control wells.
Dosing: 5 μl of the compound working solution (20×) was taken and added to the cell culture plate. 5 μl of a mixed solution of DMSO-cell culture solution was added to the solvent control and the blank control.
The 96-well culture plate was put back to the incubator for culture for 48 hours.
The following steps were performed according to the instructions of the Promega CellTiter-Glo Luminescent Cell Viability Assay Kit (Promega-G7571).
(6) 80 μl of the CellTiter-Glo working solution was added to each well. The cell plate was covered with aluminum foil to protect it from light.
The culture plate was shaken on an orbital shaker for 2 minutes to induce cell lysis.
The culture plate was allowed to stand at room temperature for 10 minutes to stabilize a luminescent signal.

[2] = system: hepatoma cell line Huh-7, and breast cancer cell lines T47D and MCF-7; experiment: Previous work: in vitro cultured human solid tumor cells treated with 3′-deoxyadenosine alone; assay type: cell-based; conditions: Huh-7, T47D and MCF-7, inventors' previous work
From the text: However, its effect was still not satisfactory.

[3] = system: human gastric cancer (SGC 7901); experiment: Experiment 9: suppression of gastric cancer (SGC 7901) xenografts with 5-fluorouracil and 3′-deoxyadenosine; assay type: in vivo, BALB/c nude mouse; conditions: 5-fluorouracil 6 mg/kg, intravenous, 28th day
From the text: (§3) The inoculated well-grown subcutaneously xenografted tumors were removed and cut into tumor tissue blocks with a size of about 2×2×2 mm for later use. After being anesthetized, the mice were placed in the left lateral decubitus position, the tumor tissue blocks were put into the armpits of the mice, the skin was sutured and disinfected, and then the mice were put back into the cages and fed normally. The mice were grouped after the tumors grew to have a diameter of about 7 to 8 mm. […] The general symptoms of the animals were observed before and after the administration. The longer diameter (a) and shorter diameter (b) of each of the solid tumors were measured twice per week after the first administration, the tumor volume was calculated according to the formula: volume (V)=½×a×b^2, and the animals were weighed. The drug was discontinued after administration for 14 days. On the 7th day after stopping the administration, the animals were weighed and then were sacrificed by cervical dislocation, and the solid tumors were removed and weighed. The data obtained were analyzed by SPSS statistical analysis software.
Each group was administered with a drug once daily (volume 0.2 mL, intravenously) and measured twice per week.

[4] = system: human colon cancer xenografts (HT-29); experiment: Experiment 7: suppression of colon cancer (HT-29) xenografts with capecitabine and 3′-deoxyadenosine; assay type: in vivo, BALB/c nude mouse; conditions: capecitabine 400 mg/Kg, 31st day
From the text: as §3

[5] = system: human breast cancer xenografts (MCF-7); experiment: Experiment 1: suppression of breast cancer (MCF-7) xenografts with capecitabine and 3′-deoxyadenosine; assay type: in vivo, BALB/c nude mouse; conditions: capecitabine 400 mg/Kg/day
Procedure: (§1) Human leukemia cells HL60, human gastric cancer cell line SGC-7901, human breast cancer cells MCF-7, human colon cancer cells HT-29, human lung cancer cells A-549, and human hepatoma cells Huh-7 were routinely cultured in vitro and digested and centrifuged to prepare cell suspensions at a concentration of about 1×10^7 cells/mL, respectively, which were inoculated subcutaneously in the right armpits of the mice at 0.2 mL per mouse.
(§2) The inoculated well-grown subcutaneously xenografted tumors were removed and cut into tumor tissue blocks with a size of about 2×2×2 mm for later use. After being anesthetized, the mice were placed in the left lateral decubitus position, the tumor tissue blocks were put into the armpits of the mice, the skin was sutured and disinfected, and then the mice were put back into the cages and fed normally. The mice were grouped after the tumors grew to have a diameter of about 7 to 8 mm. […] The longer diameter (a) and shorter diameter (b) of each of the solid tumors were measured twice per week after the first administration, the tumor volume was calculated according to the formula: volume (V)=½×a×b^2, and the animals were weighed. […] The data obtained were analyzed by SPSS statistical analysis software. […]

[6] = system: human gastric cancer xenografts (SGC-7901); experiment: Experiment 6: suppression of gastric cancer (SGC-7901) xenografts with capecitabine and 3′-deoxyadenosine; assay type: in vivo, BALB/c nude mouse; conditions: capecitabine 400 mg/Kg, 27th day
From the text: as §3

[7] = system: human lung cancer xenografts (A-549); experiment: Experiment 4: suppression of lung cancer (A-549) xenografts with cisplatin and 3′-deoxyadenosine; assay type: in vivo, BALB/c nude mouse
Procedure: as §1
The inoculated well-grown subcutaneously xenografted tumors were removed and cut into tumor tissue blocks with a size of about 2×2×2 mm for later use. After being anesthetized, the mice were placed in the left lateral decubitus position, the tumor tissue blocks were put into the armpits of the mice, the skin was sutured and disinfected, and then the mice were put back into the cages and fed normally. The mice were grouped after the tumors grew to have a diameter of about 7 to 8 mm. Generally, after being grouped, the mice were administered by gavage with a drug or with a blank solution (solvent: 0.9% (g/mL) sodium chloride injection) for continuous 14 days, once per day, administrated at a volume of 20 mL/kg. Special situations will be described separately in corresponding examples. The general symptoms of the animals were observed before and after the administration. The longer diameter (a) and shorter diameter (b) of each of the solid tumors were measured twice per week after the first administration, the tumor volume was calculated according to the formula: volume (V)=½×a×b^2, and the animals were weighed. The drug was discontinued after administration for 14 days. On the 7th day after stopping the administration, the animals were weighed and then were sacrificed by cervical dislocation, and the solid tumors were removed and weighed. The data obtained were analyzed by SPSS statistical analysis software.
Formula for Evaluation of the Therapeutic Efficacy: Tumor-growth inhibition rate=(average tumor weight in solvent control group−average tumor weight in administered control group)/average tumor weight in solvent control group×100%.
On the 14th day after inoculation of the mice with lung cancer A-549 cells, xenografted tumor models were successful, and then treated with drugs. Refer to FIG. 4 for experimental results.

[8] = system: human hepatoma xenografts (Huh-7); experiment: Experiment 5: suppression of hepatoma (Huh-7) xenografts with doxorubicin and 3′-deoxyadenosine; assay type: in vivo, BALB/c nude mouse; conditions: doxorubicin 2.5 mg/kg, 37th day
From the text: as §3
On the 23rd day after inoculation of the mice with human hepatoma Huh-7 cells, xenografted tumor models were successful, and then treated with drugs.

[9] = system: human leukemia xenografts (HL60); experiment: Experiment 2: suppression of leukemia (HL60) xenografts with doxorubicin and 3′-deoxyadenosine; assay type: in vivo, BALB/c nude mouse
Procedure: as §1, §2

IC50 [1]: 0.85 µM
IC50 (Huh-7 (human hepatoma)): 1.35 µM
Structure (SMILES): Nc1ncnc2c1ncn2[C@@H]1O[C@H](CO)C[C@H]1O [3′-deoxyadenosine]
inhibition of proliferation [2]: could inhibit the proliferation

Structure (SMILES): O=c1[nH]cc(F)c(=O)[nH]1 [5-fluorouracil]
inhibition rate [3]: 67.5%

Structure (SMILES): CCCCCOC(=O)Nc1nc(=O)n([C@@H]2O[C@H](C)[C@@H](O)[C@H]2O)cc1F [capecitabine]
inhibition rate [4]: 80.1%
experimental animals died ([5]; 11th day of the experiment, 7 mice per group): 5
tumor inhibition rate ([5]; 11th day, vs normal saline group): 86.1%
inhibition rate [6]: 57.8%

Structure (SMILES): N.N.[Cl][Pt][Cl] [cisplatin]
mice died ([7]; cisplatin 5 mg/kg/day, 7th day, 7 mice per group): two nude mice died
mice died ([7]; cisplatin 5 mg/kg/day, 10th day, 7 mice per group): 4
mice died (total) ([7]; cisplatin 5 mg/kg/day, reduced to 2.5 mg/kg on the 15th day, 18th day, 7 mice per group): 5 and 5/7
inhibitory effect on tumor growth ([7]; high-dosage cisplatin (5 mg/kg)): good inhibitory effect on tumor growth

Structure (SMILES): COc1cccc2c1C(=O)c1c(O)c3c(c(O)c1C2=O)C[C@@](O)(C(=O)CO)C[C@@H]3O[C@H]1C[C@H](N)[C@H](O)[C@H](C)O1 [doxorubicin]
tumor-growth inhibition rate [8]: 25.7%
IC50 [1]: 0.51 µM
IC50 (Huh-7 (human hepatoma)): 1.2 µM
tumor-growth inhibition rate ([9]; doxorubicin 60 mg/kg/week (20 mg/kg each time, 3 times/week), 14th day): 21.4%
experimental animals died ([9]; doxorubicin 60 mg/kg/week, 14th day of the experiment, 7 mice per group): one experimental animal in this group died

IC50 [1]: 0.742 µM
Structure (SMILES): CC(=O)O[C@H]1C(=O)[C@@]2(C)[C@H]([C@H](OC(=O)c3ccccc3)[C@]3(O)C[C@H](OC(=O)[C@H](O)[C@@H](NC(=O)c4ccccc4)c4ccccc4)C(C)=C1C3(C)C)[C@]1(OC(C)=O)CO[C@@H]1C[C@@H]2O [paclitaxel]
